# Columns and labels:
# β-actin mRNA = β-actin mRNA levels in BAT; assay type: in vivo, rats; settings: CGP-12177 0.75 mg/kg i.p., 4 h, mean ± SE
# Method: (§1) Rats were fed a diet containing either, 8,643 IU retinol/kg diet (normal diet) or 430,431 IU retinol/kg diet (vitamin A supplemented diet) for a period of 8 weeks. Food and water were provided ad libitum. Body weights and food intake were recorded weekly. Basal whole body oxygen consumption was measured before starting the diet and then after week 3, 6 and 8 on the diet. At the end of 8 weeks, half the rats from each group were challenged with a single dose of the β3 adrenergic specific agonist, CGP-12177 (prepared in pyrogen-free saline, available from Ciba-Geigy, Summit, […].) or saline. The stimulated whole body oxygen consumption was measured and the animals sacrificed 4 hours after injection. Total cellular RNA was extracted using a modification of the method described in Chomczynski and Sacchi, “Single step method of RNA isolation by acid guanidinium thiocyanate-phenolchloroform extraction”, Analytical Biochemistry 162:156-159 (1987). […] The RNA was quantified by spectrophotometric absorption at 260 nm using multiple dilutions of each sample. […] The latent image was scanned using a Phosphor Imager (Molecular Dynamic, Sunnyvale, Calif.) and analyzed by Image Quant Software (Molecular Dynamics). Intensities per μg total cellular RNA were calculated by comparison to internal laboratory standards of WAT or BAT total RNA present on each nylon membrane.
# [1] = system: β3-adrenergic receptor mRNA; assay: β3-adrenergic receptor mRNA levels in PWAT and BAT; assay type: in vivo, rats; settings: for β3AR mRNA levels, BAT / β3AR mRNA levels, PWAT: CGP-12177 0.75 mg/kg i.p., 4 h, mean ± SE
# Method: (§2) Rats were fed a diet containing either, 8,643 IU retinol/kg diet (normal diet) or 430,431 IU retinol/kg diet (vitamin A supplemented diet) for a period of 8 weeks. Food and water were provided ad libitum. Body weights and food intake were recorded weekly. Basal whole body oxygen consumption was measured before starting the diet and then after week 3, 6 and 8 on the diet. At the end of 8 weeks, half the rats from each group were challenged with a single dose of the β3 adrenergic specific agonist, CGP-12177 (prepared in pyrogen-free saline, available from Ciba-Geigy, Summit, N.J.) (0.75 mg/kg, i.p.) or saline. The stimulated whole body oxygen consumption was measured and the animals sacrificed 4 hours after injection.
# (§3) Total cellular RNA was extracted using a modification of the method described in Chomczynski and Sacchi, “Single step method of RNA isolation by acid guanidinium thiocyanate-phenolchloroform extraction”, Analytical Biochemistry 162:156-159 (1987). The integrity of the isolated RNA was verified using 1% agarose gels stained with ethidium bromide. The RNA was quantified by spectrophotometric absorption at 260 nm using multiple dilutions of each sample.
# (§4) For dot-blot analysis, multiple concentrations of RNA were immobilized on nylon membranes using a dot-blot apparatus (Biorad, Richmond, Calif.). The membranes were baked at 80° C. for 2 hrs. The baked membranes were prehybridized using 25 mM potassium phosphate, 750 mM NaCl, 75 mM Na citrate, 5× Denhardt's solution, 50 μg/ml denatured salmon sperm DNA, and 50% formamide. After incubation for 14-16 hrs. at 42° C, the membranes were hybridized with ^32P labeled probes in the prehybridization buffer plus 10% dextran sulfate. After hybridization for 14-16 hr at 42° C., the membranes were washed and exposed to a phosphor imaging screen for 48 hrs. The latent image was scanned using a Phosphor Imager (Molecular Dynamic, Sunnyvale, Calif.) and analyzed by Image Quant Software (Molecular Dynamics). Intensities per μg total cellular RNA were calculated by comparison to internal laboratory standards of WAT or BAT total RNA present on each nylon membrane.
# UCP1 mRNA = UCP1 mRNA levels in BAT (dot-blot); assay type: in vivo; settings: rats on both vitamin A supplemented and normal diets, 0.75 mg/kg i.p., 4 h (FIG. 4)
# Method: as §1
# leptin mRNA = assay: Leptin mRNA levels in PWAT (dot-blot); assay type: in vivo, rats; settings: CGP-12177 0.75 mg/kg i.p.
# Method: as §1
# [2] = Whole body oxygen consumption (basal and CGP-12177-stimulated); assay type: in vivo; settings: rats on normal and vitamin A supplemented diets, 0.75 mg/kg i.p., vs saline injected rats
# Method: as §2
# O2 consumption was assessed on up to four rats simultaneously with an Oxyscan analyzer (OXS-4; Amniotic Electronics, Columbus, Ohio). All experiments were performed on conscious unanesthetized rats during the light phase of the light-dark cycle. Flow rates were 2 L/min with a 30 second sampling time at 5 minute intervals. The temperature was maintained at 26° C. Results were expressed on a mass-dependent basis (ml/min/kg^0.67). The cumulative increase in the CGP12177-stimulated oxygen consumption was calculated as the average increase over baseline from 30 min to 110 min, post injection.
# UCP2 mRNA = UCP2 mRNA levels in PWAT and BAT; assay type: in vivo, rats; settings: CGP-12177 0.75 mg/kg i.p., 4 h, mean ± SE
# Method: as §2, §3, §4
smiles,measurement,setting,value
CC(C)(C)NCC(O)COc1cccc2[nH]c(=O)[nH]c12 (stereo not shown) [CGP-12177],"β-actin mRNA levels, BAT",β-actin mRNA; Normal Diet,98.6 ± 7.4 arbitrary units
same,"β-actin mRNA levels, BAT",β-actin mRNA; Vitamin A supplemented diet,93.8 ± 8.0 arbitrary units
same,Down regulation of β3-adrenergic receptor mRNA levels in BAT,"[1]; CGP-12177 for 4 h, rats on vitamin A supplemented and normal diets, vs saline treated",50%
same,"β3AR mRNA levels, BAT",[1]; Normal Diet,50.9 ± 3.3 arbitrary units
same,"β3AR mRNA levels, PWAT",[1]; Normal Diet,105 ± 6.0 arbitrary units
same,"β3AR mRNA levels, BAT",[1]; Vitamin A supplemented diet,59.8 ± 7.9 arbitrary units
same,"β3AR mRNA levels, PWAT",[1]; Vitamin A supplemented diet,112 ± 11 arbitrary units
same,UCP1 mRNA levels in BAT upon administration of CGP-12177,UCP1 mRNA,significant but similar increase
same,Suppression of leptin mRNA levels in PWAT,"leptin mRNA; rats on normal diet, 4 hr (FIG. 2)",27%
same,Effect on leptin mRNA levels in PWAT,"leptin mRNA; rats on vitamin A supplemented diet, 4 hr, vs saline on same diet",no further effect
same,Oxygen consumption upon administration of CGP-12177,[2],rapid and sustained increase
same,"UCP2 mRNA levels, BAT",UCP2 mRNA; Normal Diet,93.4 ± 12.2 arbitrary units
same,"UCP2 mRNA levels, PWAT","UCP2 mRNA; Normal Diet, 0.75 mg/kg",109 ± 10 arbitrary units
same,"UCP2 mRNA levels, PWAT","UCP2 mRNA; Normal Diet, listed as CGP12177, 0.75 mg/kg",no effect
same,"UCP2 mRNA levels, BAT",UCP2 mRNA; Vitamin A supplemented diet,94 ± 8.9 arbitrary units
same,"UCP2 mRNA levels, PWAT",UCP2 mRNA; Vitamin A supplemented diet,110 ± 10 arbitrary units
